We go through 120 molecules from a melting point compilation (Tetko et al.).

The term melting point denotes the temperature, or range, at which the solid turns liquid. The molecule `Cc1nn(C)c(C(=O)O)c1[N+](=O)[O-]` yielded a melting point of 146 to 148 °C. The value for `O=C(O)CCSc1ccccc1Br` was 104 to 106 °C; that for `COc1ccc(C(=O)O)cc1S(=O)(=O)N(C)C` was 149 to 151 °C. Under `COc1sc(C=O)cc1Br` stands 115 to 117 °C; under `CC(=O)c1cccc(S(N)(=O)=O)c1`, 143 to 145 °C. The value for `S=c1[nH][nH]c(=Nc2cccc(Br)c2)s1` was 225 to 227 °C; that for `O=C(CBr)C12CC3CC(CC(C3)C1)C2` was 59 to 61 °C; that for `Cc1sc2ncnc(N)c2c1C` was 257 to 259 °C.

In turn, `Cc1cc(C(=O)CCl)c(C)n1-c1ccc(OC(F)F)cc1` showed a melting point of 83 to 87 °C. The value for `Cn1cc(NS(=O)(=O)c2ccsc2C(=O)O)cn1` was 239 to 241 °C; that for `CNCC(O)COc1ccc(C(F)(F)F)cc1` (stereo not given) was 85 to 87 °C; that for `COc1cc(OC)cc(N2CCCNCC2)c1` was 50 to 52 °C.

On to `O=C(O)c1nc(-c2ccccc2)oc1C1CC1`, for which the melting point was in the range of 198 to 200 °C.

The molecule `CC(CCOc1ccccc1)C(=O)O` (stereo not given) registered a melting point of 76 to 78 °C. Under `NC(=O)c1cccnc1Sc1ccc(C(=O)O)cc1` stands 257 to 259 °C; under `Cc1nc2c(F)cccc2c(Cl)c1C(C)C`, 47 to 49 °C. Molecule `O=[N+]([O-])c1c(Cl)nc2ccccn12` returned a melting point of 170 to 172 °C.

For `FC(F)(F)c1nc(S)c2ccccc2n1`, the melting point lay in the range of 214 to 216 °C. Molecule `Cn1ccnc1C(=O)c1cc(S)nc2ccccc12` came in with a melting point of 250 to 252 °C. `CC(=O)c1csc(-c2csc(C)n2)c1` yielded a melting point of 125 to 127 °C.

In the case of `Cc1ccc(Cl)c2c1C(=O)C(=O)N2`, the melting point lay in the range of 209 to 211 °C. In the case of `COC(=O)c1c(NC(=O)CCl)sc2c1CCC2`, the melting point was 98 to 100 °C. The value for `Cc1cc(Br)cc(C=O)c1OC(F)F` was 46 to 48 °C.

Consider `O=C1C=C(Br)C(=O)N1`, for which the melting point was 151 to 153 °C. Under `O=C(Nc1cn[nH]c1)c1ccncc1` stands 239 to 241 °C. In turn, `Fc1ccc2c(C3CCNCC3)c[nH]c2c1` registered a melting point of 225 to 227 °C. The value for `CC(O)c1ccc(S(=O)(=O)Nc2ccc(C(=O)O)cc2)cc1` (stereo not given) was 199 to 201 °C; that for `CN(C)c1nc(CC#N)nc(=N)[nH]1` was 139 to 141 °C; that for `COCCOc1cccc(CNC(=O)CCl)c1` was 90 to 92 °C. The value for `Cc1ncc(CO)n1-c1ccccc1` was 173 to 175 °C; that for `Cc1ccc(N)cc1S(=O)(=O)Nc1ccc(SC(F)F)cc1` was 227 to 230 °C.

With `CC(C)(C)OC(=O)NC1CCN(CC(N)=S)CC1`, the melting point lay in the range of 169 to 171 °C.

`Cc1ccc(S(=O)(=O)NCc2ccco2)cc1C(=O)O` came in with a melting point of 178 to 180 °C. Molecule `Nc1cc(Br)c(F)cc1Cl` registered a melting point of 71 to 73 °C. Under `COc1ccc(CC(=O)NN)cc1` stands 132 to 134 °C; under `CC(C)(C)OC(=O)NCC1CCCCS1(=O)=O` (stereo not given), 97 to 99 °C; under `CC1(C)Cc2ccc(Cl)cc2C1O` (stereo not given), 94 to 96 °C. Under `O=C(CCl)NC(=O)NC1CC1` stands 105 to 107 °C.

For the molecule `Cc1cc(C(=O)C(C)Cl)c(C)n1-c1ccc(Cl)cc1` (stereo not given), the melting point lay in the range of 107 to 111 °C. The value for `OCc1nc2ccccc2n1C(F)F` was 150 to 152 °C. As to `CC(C)(C(=O)O)c1ccc([N+](=O)[O-])cc1`, the melting point is 129 to 131 °C. Under `CN(CC(=O)O)S(=O)(=O)c1ccc(Br)cc1` stands 179 to 181 °C; under `Cc1cc(-c2cc(C(=O)O)c3c(C)noc3n2)c(C)o1`, 266 to 268 °C. The value for `CC(C)(C)OC(=O)N1CCc2n[nH]c(=O)cc2C1` was 187 to 189 °C; that for `Cn1ccnc1C(N)=S` was 134 to 136 °C. The value for `CC(NC(=O)CCl)c1ccccc1` (stereo not given) was 75 to 77 °C; that for `Cc1nc2n(c1CN1CCNCC1)CCCC2` was 111 to 113 °C; that for `O=C(O)c1cc(=O)c(OCc2ccccc2)co1` was 179 to 181 °C. Consider `COC(=O)c1ccc(Oc2ccc([N+](=O)[O-])cc2)nn1`, for which the melting point was in the range of 194 to 196 °C. In the case of `Cc1c(-c2ccccc2)nc2ccccc2c1C(=O)O`, the melting point lay within 235 to 237 °C. Under `CCN(CC)C(=O)N1CCC(C(=O)O)CC1` stands 96 to 98 °C; under `O=C1COc2ccc(C(=O)CBr)cc2N1`, 190 to 192 °C; under `C#CCN1CCCCC1C(=O)NC` (stereo not given), 116 to 118 °C. `CCNC(=O)Cn1ccc(N)n1`: the melting point is 124 to 126 °C.

Molecule `Cc1cc(C(=O)O)c(C)n1-c1ccccn1` registered a melting point of 187 to 189 °C. The value for `NCc1ccc(N2CCN(c3ccccc3)CC2)nc1` was 111 to 113 °C; that for `COC(=O)c1ccc2c(c1)CCCN2` was 71 to 73 °C; that for `CC(Cl)c1nnc(-c2ccccc2)o1` (stereo not given) was below 17 °C. The value for `O=C1CCCN1Cc1nnc(S)o1` was 172 to 174 °C. Under `Cc1ccc(C(C)C)c(Oc2ccc(C=O)cc2[N+](=O)[O-])c1` stands 109 to 111 °C; under `O=C1CCc2cc(C(=O)CCl)c(F)cc2N1`, 257 to 259 °C. In turn, `CSc1nc(Cl)cc(NN)n1` came in with a melting point of 154 to 156 °C.

The molecule `Oc1ccc(-c2noc(C3CC3)n2)cc1` displayed a melting point of 149 to 151 °C. The value for `CC(C)(C)OC(=O)N1CCN(CCS(N)(=O)=O)CC1` was 138 to 140 °C; that for `CC(C)Sc1ccc(C(=O)O)cc1` was 139 to 141 °C. Under `CC(C)n1ncc2cc(C=O)c(Cl)nc21` stands 78 to 80 °C. `Cc1ccc(OC(F)F)c(C(=O)CBr)c1` gave a melting point of 55 to 57 °C. The value for `COc1ccc(OC)c(C(O)CN)c1` (stereo not given) was 96 to 98 °C; that for `CCc1sc(C(=O)O)cc1C` was 98 to 100 °C. In turn, `ClCc1nnnn1-c1ccccc1` came in with a melting point of 45 to 73 °C. The value for `Nc1nc2cc(Br)ccc2[nH]1` was 148 to 150 °C; that for `O=[N+]([O-])c1sc(Cl)nc1Cl` was 38 to 40 °C. The value for `O=C(O)C1(c2ccc(F)cc2)CCCCC1` was 137 to 139 °C; that for `O=C(O)CCCc1nc(-c2ccc(Cl)cc2)no1` was 108 to 110 °C; that for `C#Cc1cccc(NC(=O)CCl)c1` was 120 to 122 °C. The value for `CNC(=O)Cc1ccc(N)cc1` was 84 to 86 °C; that for `CC(NO)c1ccc(F)cc1` (stereo not given) was 74 to 76 °C; that for `Cc1cc(C)cc(C(=O)CC#N)c1` was 140 to 142 °C.

As to `CNc1scnc1C(=O)O`, the melting point lay within 99 to 101 °C. Under `CN1C(=O)c2ccc(N)cc2C1=O` stands 247 to 249 °C; under `CC(C)(C)c1ccc(OCCC(=O)O)cc1`, 94 to 96 °C.

`N#Cc1cnc(Oc2ccccc2)cn1` had a melting point of 99 to 101 °C. The value for `COC(=O)c1oc(CCl)cc1C` was 53 to 55 °C. The value for `O=C(O)c1csc(-c2ccc(Br)s2)n1` was 248 to 250 °C; that for `O=C(CCl)Nc1sc2c(c1C(=O)NCc1ccccc1)CCCC2` was 306 to 308 °C.

`Cc1ccc(S(=O)(=O)Cl)c(Br)c1` gave a melting point of 70 to 72 °C.

Take `O=S(=O)(Nc1cccc(Cl)c1)c1ccc2oc(S)nc2c1`: the melting point lay within 173 to 175 °C. Under `NC(=O)Nc1ccccc1Br` stands 199 to 201 °C; under `Cc1nn(-c2ccc(F)cc2)c(C)c1CC(=O)O`, 171 to 173 °C; under `COc1ccc(CC2(C)NC(=O)NC2=O)cc1` (stereo not given), 196 to 198 °C. Under `Nc1ccccc1NS(=O)(=O)c1ccccc1` stands 169 to 171 °C; under `NS(=O)(=O)c1ccc(C(=O)NCC(=O)O)cc1`, 192 to 194 °C. Take `Cc1noc(C)c1COc1ccc(CC(=O)O)cc1`: the melting point lay within 138 to 140 °C. Molecule `O=C(O)CNS(=O)(=O)c1cccc(C(F)(F)F)c1` showed a melting point of 80 to 82 °C.

The molecule `CC(C)C[C@H](NC(=O)OC(C)(C)C)C(=O)O` came in with a melting point of 87 to 89 °C. Under `O=C(O)c1csc(-c2cccc([N+](=O)[O-])c2)n1` stands 214 to 216 °C. `CC(C)c1ccc(C2(O)CCC(=O)CC2)cc1` registered a melting point of 134 to 136 °C. `COc1ccc(C=O)cc1OCC(N)=O` showed a melting point of 136 to 138 °C. Molecule `NC(=O)c1cc(Br)ccc1N` registered a melting point of 183 to 185 °C.

In the case of `CCN(CC)Cc1nc(Cl)c2c(C)c(C)sc2n1`, the melting point lay in the range of 30 to 32 °C.

Molecule `CC1CCc2sc(C(=O)O)cc2C1` (stereo not given) yielded a melting point of 132 to 136 °C. The value for `Nc1ccc(O)cc1C(=O)NCc1ccccc1` was 154 to 156 °C. Under `COC(=O)c1cc(C(=O)OC)[nH]n1` stands 149 to 151 °C; under `Cc1cc(NC(=O)C(C)SCC(=O)O)no1` (stereo not given), 125 to 127 °C; under `Cc1cccc(N2CC(C(=O)O)CC2=O)c1C` (stereo not given), 211 to 213 °C. Under `C1CCC(C2CCNCC2)CC1` stands 73 to 75 °C; under `COc1ccc(NS(=O)(=O)c2c[nH]c(C(=O)O)c2)cc1Cl`, 207 to 209 °C; under `Cc1ccc(C(=O)O)cc1NC(=O)c1ccccc1`, 269 to 271 °C. Take `CS(=O)(=O)c1nnc(N)[nH]1`: the melting point fell in the range of 243 to 245 °C. Under `CC(C)CC(CNC(=O)OC(C)(C)C)C(=O)O` (stereo not given) stands 76 to 78 °C; under `NC(=O)NCCCc1ccccc1`, 137 to 139 °C; under `Cc1ccc(N)cc1-n1nnnc1C`, 139 to 141 °C.

The molecule `O=C(O)CNS(=O)(=O)c1cc(C(F)(F)F)ccc1Cl` yielded a melting point of 157 to 159 °C. The value for `Cc1cccc2[nH]cc(CCC(=O)O)c12` was 145 to 147 °C; that for `S=C1Cc2ccccc2N1` was 146 to 148 °C; that for `CC(C)(C)NC(=O)NCCCl` was 104 to 106 °C.

As to `Cc1ccc(C(=O)CBr)cc1C`, the melting point is 63 to 65 °C.

On to `COC(=O)c1ncccc1F`, for which the melting point lay within 81 to 83 °C.

For `CN(Cc1ccccc1)C(=O)c1ccccc1C(=O)O`, the melting point is 153 to 155 °C. The molecule `COc1cccc(C2C(C(=O)O)CC(=O)N2C2CC2)c1` (stereo not given) gave a melting point of 179 to 181 °C.
